In data set [1] the test system is C57BL/6 mice. As to the kind of experiment: Fibrosis of implanted material spheres retrieved after 14-day intraperitoneal implantation (phase contrast / brightfield imaging). The class given is in vivo. An excerpt:
All protocols were approved by the MIT Committee on Animal Care, and all surgical procedures and post-operative care were supervised by MIT Division of Comparative Medicine veterinary staff. All mice, wild type male immune-competent (non-diabetic), STZ-induced diabetic, as well as knockout C57BL/6 mice, were ordered pathogen-free from Jackson Laboratory (Bar Harbor, Me.) or Taconic (Hudson, N.Y.). The status of all mice was subsequently verified by testing sentinel animals, shown to be negative for at least 12 known mouse pathogens. Implanted mice were anesthetized with 3% isoflurane in oxygen and had their abdomens shaved and sterilized using betadine and isopropanol. C57BL/6-Nude (T KO, B6NU), C57BL/6-Rag2^null (T & B KO, RAGN12), C57BL/6-Rag2^null/Il2rγ^null (Rag2/γ, 4111) were ordered from Taconic (Hudson, N.Y.), and C57BL/6-IghM^null (BKO, 002288), (C57BL/6) B6.12956-Ccr6tm1(EGFP)Irw/J. (Ccr6, 013061), and C57BL/6-C3 KO (C3 KO, 003641) mice were ordered from Jackson Laboratory, Bar Harbor, Me.). Preoperatively, all mice received 0.05 mg/kg buprenorphine and 0.2 mL of 0.9% saline subcutaneously for pre-surgery analgesia and dehydration prevention. A midline (abdomen) incision (0.5 mm) was made and the peritoneal lining was exposed using blunt dissection. The peritoneal wall was then grasped with forceps and a 0.5-1 mm incision was made along the linea alba. A desired volume of spheres (all materials) were then loaded into a sterile pipette and implanted into the peritoneal cavity. The incision was then closed using 5-0 taper-tipped polydioxanone (PDS II) absorbable sutures, and the skin was closed using a wound clip and VetBond tissue glue. For subcutaneous implantation, ˜200-300 μL of 500 μm SLG20 spheres were injected s.c. following anesthesia with isofluorane. […]

A further data set has as its system CXCL10. As to the kind of experiment: CXCL10 ELISA of protein lysates from retrieved alginate spheres and tissue. The class given is in vivo, C57BL/6 mice. The settings on record: lysates of alginate spheres and tissue retrieved at 14 days. On the technique in general: In an ELISA, binding on a coated surface is turned into a signal by an enzyme label.
Data set [2] relates to C57BL/6 mice. As to the kind of experiment: In vivo wound healing of skin incisions. An excerpt: For in vivo wound healing: C57BL/6 mice were anesthetized (same as above) and shaved, and skin incisions 1.5 cm in length were made along the midline. Each incision was then wound clipped shut for both vehicle and daily GW2580-treated C57BL/6 mice. Wound clips were removed and then replaced each imaging day up until day 7 (required to maintain them up until at least this time), after which clips were left off completely. Photos were acquired on days 0, 1, 4, 7, 10, and 14 post-incision. After 14 days, mice were sacrificed, and skin samples were prepared for histological assessment (H&E and Masson's Trichrome) of both vehicle and GW2580 treatment groups. Cross-sections through the incision line were generated to assess the level of in vivo healing following a 14-day treatment regimen. For IP innate immune cell counts, FACS, and phagocytosis assays: cells were isolated by peritoneal lavage with 8 mL DPBS, diluted into RPMI, and then subsequently counted, and aliquoted either for staining and FACS analysis (as described above), or for phagocytosis assays. Peritoneal exudate macrophages isolated by IP lavage from (n=5) mice in each treatment group were immediately plated (400,000 cells/well in a 24-well plate) and incubated with fluorospheres for 90 minutes to determine phagocytic activity. 1 μm orange fluorospheres (540/560) (Cat# F13082, Invitrogen, Carlsbad, Calif.) were added to each well in a volume of 500 μL from an initial dilution of 20 μL into 10 mL. After addition, plates were spun down at 1,000 rpm for 1 min, and then placed in an incubator for 90 minutes to allow IP macrophages time to phagocytose the 1 μm diameter fluorospheres. Following the 90-minute incubation, all wells were fixed with 4% paraformaldehyde and stored at 4 C prior to imaging using a fluorescent and brightfield-capable EVOS microscope (Advanced Microscopy Group). […] Following appropriate incubation times, samples were read in a black-wall 96-well plate with a Tecan fluorescent-capable Infinite M1000 plate reader.

Entries after “also recorded” stand apart in the source; their conditions may differ.

As to `COc1ccc(COc2ccc(Cc3cnc(N)nc3N)cc2OC)cc1` [GW2580], the “fibrosis on 500 μm alginate spheres” value in the data set on C57BL/6 mice [1] (SLG20 alginate 500 μm spheres, 14 day implant, vs wild type/vehicle control) is listed as “prevented the fibrotic response; also recorded: completely eliminated; also recorded: prevents fibrosis”. For the same molecule, the “fibrosis on 500 μm glass ceramic spheres” value in the data set on C57BL/6 mice [1] (glass spheres, 14 days, vs saline vehicle) is on record as “prevented the fibrotic response; also recorded: prevents fibrosis”. In addition, the “fibrosis on 500 μm polystyrene polymer spheres” value in the data set with C57BL/6 mice [1] (polystyrene spheres, 14 days, vs saline vehicle) is given as “prevented the fibrotic response; also recorded: prevents fibrosis”. The CXCL10 protein level result in the data set with CXCL10 is “increased reduction of CXCL10 back to wildtype levels”. Moreover, in the data set with C57BL/6 mice [2] (1.5 cm skin incision, daily treatment, day 7, skin stretched apart), the “incision site closure at day 7” value is “shut and not pulling apart”. In addition, the “scarring at day 14” value in the data set with C57BL/6 mice [2] (1.5 cm skin incision, daily treatment, day 14) is on record as “very little scarring”. Also, the “wound resolution and healing potential by width and depth measurements (histology)” value in the data set on C57BL/6 mice [2] (day 14 post-incision, vs vehicle) is recorded as “no significant (ns) differences”.

The record behind these values is patent publication US20190083495A1, “Methods Of Preventing Or Reducing A Fibrotic Response Using CSF1R Inhibitors” (Massachusetts Institute of Technology, priority 2016, published 2019).
